# Counter-ions that a name gives are not always drawn. Like-named read-outs stand apart in the source and are kept apart here.
# Experiments:
# [1] = biological target: T1, H^+ /K^+ -ATPase (Oryctolagus cuniculus, UniProt P27112); assay: Inhibition of H+/K+-ATPase enzyme activity in vitro; assay type: biochemical, rabbit; conditions: 5 min pre-incubation at 37° C., 4 mM ATP
# T1 construct: The gastric mucous membrane was removed from rabbit; from tissue; host or cells: rabbit gastric mucosa, microsomal fraction (77,000 xg)
# T1 sequence (P27112 2-1035 limits assumed): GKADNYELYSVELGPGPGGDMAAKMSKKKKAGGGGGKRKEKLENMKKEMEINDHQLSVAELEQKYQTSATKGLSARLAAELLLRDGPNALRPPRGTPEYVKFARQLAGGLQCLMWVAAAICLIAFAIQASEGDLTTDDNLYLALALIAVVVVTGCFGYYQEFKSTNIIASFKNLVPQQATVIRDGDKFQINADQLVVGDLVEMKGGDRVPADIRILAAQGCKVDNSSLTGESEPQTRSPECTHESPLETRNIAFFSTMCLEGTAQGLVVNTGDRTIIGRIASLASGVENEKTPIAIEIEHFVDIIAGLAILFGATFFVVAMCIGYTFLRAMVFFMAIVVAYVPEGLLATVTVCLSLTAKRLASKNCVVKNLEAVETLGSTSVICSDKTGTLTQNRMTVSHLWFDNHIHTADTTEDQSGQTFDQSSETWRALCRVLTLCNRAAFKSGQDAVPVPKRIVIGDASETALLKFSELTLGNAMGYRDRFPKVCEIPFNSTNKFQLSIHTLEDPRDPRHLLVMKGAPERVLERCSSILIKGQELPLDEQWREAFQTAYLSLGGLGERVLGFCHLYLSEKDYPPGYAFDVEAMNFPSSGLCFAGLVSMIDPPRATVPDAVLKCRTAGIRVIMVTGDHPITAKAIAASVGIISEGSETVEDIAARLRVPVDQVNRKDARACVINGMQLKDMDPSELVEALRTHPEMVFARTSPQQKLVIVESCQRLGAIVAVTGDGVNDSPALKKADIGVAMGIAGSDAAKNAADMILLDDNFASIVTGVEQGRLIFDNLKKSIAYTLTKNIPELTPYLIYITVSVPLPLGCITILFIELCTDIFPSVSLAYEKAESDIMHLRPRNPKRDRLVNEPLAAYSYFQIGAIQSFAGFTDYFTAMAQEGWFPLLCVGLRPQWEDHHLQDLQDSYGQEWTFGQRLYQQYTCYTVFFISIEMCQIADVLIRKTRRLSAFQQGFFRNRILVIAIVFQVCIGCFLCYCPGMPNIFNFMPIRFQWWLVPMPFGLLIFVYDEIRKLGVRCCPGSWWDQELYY
# T1 sequence (P18597 whole entry partner): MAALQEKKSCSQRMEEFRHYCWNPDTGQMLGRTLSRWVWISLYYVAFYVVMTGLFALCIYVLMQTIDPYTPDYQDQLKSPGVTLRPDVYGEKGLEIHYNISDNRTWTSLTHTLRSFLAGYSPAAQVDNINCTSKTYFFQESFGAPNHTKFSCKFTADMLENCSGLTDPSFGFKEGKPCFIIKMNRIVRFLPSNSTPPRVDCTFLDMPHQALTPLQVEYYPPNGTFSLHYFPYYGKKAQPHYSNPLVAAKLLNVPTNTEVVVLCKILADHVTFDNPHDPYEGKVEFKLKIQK
# Experimental: The gastric mucous membrane was removed from rabbit and then centrifuged with 77,000 xg using a ultracentrifuge to separate the microsomal fraction which was used as the source of H^+ /K^+ -ATPase enzyme for this test. 60 μg of H^+ /K^+ -ATPase was pre-incubated with the sample (the compound according to the present invention) for 5 minutes at 37° C. and then 4 mM ATP as the substrate and 4 mM Mg^++, 20 mM K^+ as the cofactor were added thereto. Then, the amount of inorganic phosphorus thus produced was determined using a spectrophotometer at 660 nm and converted into the amount of protein according to Lowry method. […]
# [2] = tested on: acidity; assay: Inhibition of acidity (total acid output), Shay method; assay type: in vivo, SD male rats; conditions: for Volume (inhibition of acidity) / Inhibition rate, acidity: intraduodenal; for Volume (inhibition of acidity) / Inhibition rate, acidity / ED50: 5 h; for Inhibition rate, acidity: vs normal group; for ED50: Rattus norvegicus
# Experimental: (§1) The specific test methods are as follows.
# (§2) SD male rats (200±20 g) were fasted for 24 hours, except for water, and then anesthesized with ether. The abdomen of rats was incised and then the pylorus was ligated. The test compounds were suspended or dissolved in […] (carboxymethylcellulose) and injected into duodenum. After the abdomen was suctured, the rats were allowed to stand for 5 hours and then sacrificed with ether. The stomach was removed from rats and the gastric juices were collected. The gastric juice was centrifuged with 10,000×g for 10 minutes at 4° C. to remove the precipitate. The amount of gastric juice and acidity were determined using pH 7.0 end point assay with 0.02N NaOH and then the total acid output was calculated.
# [3] = tested on: gastric juice secretion; assay: Inhibition of gastric juice secretion, Shay method; assay type: in vivo, SD male rats; conditions: for Gastric juice volume / Inhibition rate, gastric juice secretion: intraduodenal; for Gastric juice volume / Inhibition rate, gastric juice secretion / ED50: 5 h; for Inhibition rate, gastric juice secretion: vs normal group; for ED50: Rattus norvegicus
# Experimental: as §1, §2
# [4] = tested on: gastric and duodenal ulcers; conditions: background art; cited from earlier work
# [5] = tested on: ICR (male, female) mouse; assay: in vivo; conditions: oral; for Number of animals died in day after administration: each of days 0-14
# Experimental: (§3) Five weeks aged ICR (male, female) mouse were pre-bred in the breeding cage for one week and then the animals showing a smooth gain in body weight were randomly selected and used in this test. The amount to be administered to the test animals was established on the basis of the maximum dose of 5,000 mg/kg with the common ratio of 1.5.
# (§4) The test compounds in a powder were suspended in 0.5% methylcellulose and administered per oral using a lml syringe. The other specific conditions for administration are described in the following.
# (§5) In the above test, the control group received only 0.5% methylcellulose.
# (§6) (1) Clinical symptoms and death of test animals
# (§7) The clinical symptoms and death of test animals caused by the test compounds were recorded immediately after administration of the test compounds and during the overall test period.
# [6] = in vivo; conditions: mouse, in vivo, po
# Experimental: as §3, §4, §5, §6, §7
# [7] = tested on: proton pump of H^+, K^+ -ATPase; conditions: background art; cited from earlier work
# [8] = rabbit gastric microsomal H+/K+-ATPase, read-out: IC50
compound,measurement,setting,value
"COc1ccnc(CSc2nc3cc(-n4cccc4)c(F)cc3[nH]2)c1C [Compound 1, 2-[[(4-methoxy-3-methyl)-2-pyridinyl]methylthio]-5-(1H-pyrrol-1-yl)-6-fluoro-1H-benzimidazole]",IC50,[1]; [8],420 µM
COc1cc(C[S+]([O-])c2nc3cc(-n4cccc4)c(F)cc3[nH]2)ncc1C (centres unmarked) [Compound 3],IC50,[1]; [8],2000 µM
COc1c(C)cnc(C[S+]([O-])c2nc3cc(-n4cccc4)c(F)cc3[nH]2)c1C (centres unmarked) [Compound 4],IC50,[1]; [8],430 µM
CCOc1ccnc(C[S+]([O-])c2nc3cc(-n4cccc4)c(F)cc3[nH]2)c1C (centres unmarked) [Compound 5],Volume (inhibition of acidity),"[2]; 10 mg/kg, rat",21.85 ± 2.44 μEq/hr
same,"Inhibition rate, acidity","[2]; 10 mg/kg, rat",66.78%
same,Volume (inhibition of acidity),"[2]; 30 mg/kg, rat",11.84 ± 4.00 μEq/hr
same,"Inhibition rate, acidity","[2]; 30 mg/kg, rat",82.00%
same,Gastric juice volume,"[3]; 10 mg/kg, rat",1.63 ± 0.04 ml/100 g BW
same,"Inhibition rate, gastric juice secretion","[3]; 10 mg/kg, rat",42.40%
same,Gastric juice volume,"[3]; 30 mg/kg, rat",1.21 ± 0.10 ml/100 g BW
same,"Inhibition rate, gastric juice secretion","[3]; 30 mg/kg, rat",57.24%
same,IC50,[1]; [8],< 40 µM
"CCOCCOc1ccnc(C[S+]([O-])c2nc3cc(-n4cccc4)c(F)cc3[nH]2)c1C (centres unmarked) [Compound 6, 2-[[(4-(2-ethoxyethoxy)-3-methyl)-2-pyridinyl]methylsulfinyl]-5-(1H-pyrrol-1-yl)-6-fluoro-1H-benzimidazole]",IC50,[1]; [8],28 µM
COc1ccnc(C[S+]([O-])c2nc3cc(-n4cccc4)c(F)cc3[nH]2)c1OC (centres unmarked) [Compound 7],IC50,[1]; [8],290 µM
COc1ccnc(C[S+]([O-])c2nc3cc(-n4cccc4)c(F)cc3[nH]2)c1 (centres unmarked) [Compound 8],IC50,[1]; [8],1900 µM
[O-][S+](Cc1ccccn1)c1nc2cc(-n3cccc3)c(F)cc2[nH]1 (centres unmarked) [Compound 9],IC50,[1]; [8],4700 µM
Cc1cnc(C[S+]([O-])c2nc3cc(-n4cccc4)c(F)cc3[nH]2)c(C)c1OCC(F)(F)C(F)(F)F (centres unmarked) [Compound 11],IC50,[1]; [8],9300 µM
Cc1c(OCC(F)(F)C(F)(F)F)ccnc1C[S+]([O-])c1nc2cc(-n3cccc3)c(F)cc2[nH]1 (centres unmarked) [Compound 12],IC50,[1]; [8],150 µM
Cc1c(OCC(F)(F)C(F)(F)C(F)(F)F)ccnc1C[S+]([O-])c1nc2cc(-n3cccc3)c(F)cc2[nH]1 (centres unmarked) [Compound 13],IC50,"[1]; IC50, rabbit gastric microsomal H+/K+-ATPase",470 µM
Cc1c(OCC(F)(F)C(F)(F)F)ccnc1CS(=O)(=O)c1nc2cc(-n3cccc3)c(F)cc2[nH]1 [Compound 14],IC50,[1]; [8],5300 µM
COc1c(C)cnc(C[S+]([O-])c2nc3cc(-n4c(C)ccc4C)c(F)cc3[nH]2)c1C (centres unmarked) [Compound 15],Volume (inhibition of acidity),"[2]; 10 mg/kg, rat",26.61 ± 5.27 μEq/hr
same,"Inhibition rate, acidity","[2]; 10 mg/kg, rat",51.81%
same,Volume (inhibition of acidity),"[2]; 30 mg/kg, rat",12.74 ± 1.80 μEq/hr
same,"Inhibition rate, acidity","[2]; 30 mg/kg, rat",76.93%
same,Gastric juice volume,"[3]; 10 mg/kg, rat",1.81 ± 0.19 ml/100 g BW
same,"Inhibition rate, gastric juice secretion","[3]; 10 mg/kg, rat",33.70%
same,Gastric juice volume,"[3]; 30 mg/kg, rat",1.46 ± 0.13 ml/100 g BW
same,"Inhibition rate, gastric juice secretion","[3]; 30 mg/kg, rat",46.52%
same,IC50,[1]; [8],50 µM
"COc1ccnc(C[S+]([O-])c2nc3cc(-n4c(C)ccc4C)c(F)cc3[nH]2)c1C (centres unmarked) [Compound 16, 2-[[(4-methoxy-3-methyl)-2-pyridinyl]methylsulfinyl]-5-(1H-2,5-dimethylpyrrol-1-yl)-6-fluoro-1H-benzimidazole]",Volume (inhibition of acidity),"[2]; 3 mg/kg, rat",25.65 ± 6.86 μEq/hr
same,"Inhibition rate, acidity","[2]; 3 mg/kg, rat",64.68%
same,Volume (inhibition of acidity),"[2]; 10 mg/kg, rat",10.08 ± 3.71 μEq/hr
same,"Inhibition rate, acidity","[2]; 10 mg/kg, rat",86.12%
same,Volume (inhibition of acidity),"[2]; 30 mg/kg, rat",1.75 ± 1.06 μEq/hr
same,"Inhibition rate, acidity","[2]; 30 mg/kg, rat",97.59%
same,ED50,[2],1.85 mg/kg
same,Acidity lowering effect (in words),[2]; rat,high acidity lowering effect
same,Gastric juice volume,"[3]; 3 mg/kg, rat",1.92 ± 0.14 ml/100 g BW
same,"Inhibition rate, gastric juice secretion","[3]; 3 mg/kg, rat",44.35%
same,Gastric juice volume,"[3]; 10 mg/kg, rat",1.35 ± 0.15 ml/100 g BW
same,"Inhibition rate, gastric juice secretion","[3]; 10 mg/kg, rat",60.87%
same,Gastric juice volume,"[3]; 30 mg/kg, rat",0.98 ± 0.19 ml/100 g BW
same,"Inhibition rate, gastric juice secretion","[3]; 30 mg/kg, rat",71.59%
same,ED50,[3],4.53 mg/kg
same,Inhibition of gastric juice secretion (in words),[3]; rat,very strong inhibition of gastric juice secretion
same,IC50,[1]; [8],12 µM
COc1cc(C[S+]([O-])c2nc3cc(-n4c(C)ccc4C)c(F)cc3[nH]2)ncc1C (centres unmarked) [Compound 17],IC50,[1]; [8],22 µM
Cc1cnc(C[S+]([O-])c2nc3cc(-n4c(C)ccc4C)c(F)cc3[nH]2)cc1C (centres unmarked) [Compound 18],IC50,[1]; [8],400 µM
COc1ccnc(C[S+]([O-])c2nc3cc(-n4c(C)ccc4C)c(F)cc3[nH]2)c1OC (centres unmarked) [Compound 19],IC50,[1]; [8],8100 µM
COc1ccnc(C[S+]([O-])c2nc3cc(-n4c(C)ccc4C)c(F)cc3[nH]2)c1 (centres unmarked) [Compound 20],Volume (inhibition of acidity),"[2]; 10 mg/kg, rat",18.41 ± 2.27 μEq/hr
same,"Inhibition rate, acidity","[2]; 10 mg/kg, rat",74.23%
same,Volume (inhibition of acidity),"[2]; 30 mg/kg, rat",11.31 ± 1.91 μEq/hr
same,"Inhibition rate, acidity","[2]; 30 mg/kg, rat",84.17%
same,Gastric juice volume,"[3]; 10 mg/kg, rat",1.41 ± 0.16 ml/100 g BW
same,"Inhibition rate, gastric juice secretion","[3]; 10 mg/kg, rat",53.62%
same,Gastric juice volume,"[3]; 30 mg/kg, rat",1.06 ± 0.10 ml/100 g BW
same,"Inhibition rate, gastric juice secretion","[3]; 30 mg/kg, rat",65.13%
same,IC50,[1]; [8],210 µM
Cc1ccc(C)n1-c1cc2nc([S+]([O-])Cc3ccccn3)[nH]c2cc1F (centres unmarked) [Compound 21],IC50,[1]; [8],7600 µM
Cc1cnc(C[S+]([O-])c2nc3cc(-n4c(C)ccc4C)c(F)cc3[nH]2)c(C)c1OCC(F)(F)F (centres unmarked) [Compound 22],IC50,[1]; [8],390 µM
Cc1c(OCC(F)(F)F)ccnc1C[S+]([O-])c1nc2cc(-n3c(C)ccc3C)c(F)cc2[nH]1 (centres unmarked) [Compound 23],IC50,[1]; [8],320 µM
"COc1ccnc(C[S+]([O-])c2nc3cc(-n4cccc4)c(F)cc3[nH]2)c1C (centres unmarked) [Compound 24, 2-[[(4-methoxy-3-methyl)-2-pyridinyl]methylsulfinyl]-5-(1H-pyrrol-1-yl)-6-fluoro-1H-benzimidazole sodium salt]",IC50,[1]; [8],5.6 µM
COc1ccnc(C[S+]([O-])c2nc3cc(-n4c(C)ccc4C)c(F)cc3[nH]2)c1C (centres unmarked) [Compound 25],IC50,[1]; [8],5.9 µM
"COc1ccc2[nH]c([S+]([O-])Cc3ncc(C)c(OC)c3C)nc2c1 (centres unmarked) [Omeprazole, 5-methoxy-2-[[(4-methoxy-3,5-dimethyl-2-pyridinyl)methyl]sulfinyl]-1H-benzimidazole]",Anti-ulcer effect over conventional H2-receptor antagonists,[4],superior effect over conventional H2 -receptor antagonists
same,Duration compared with conventional anti-ulcer agents,[4],prolonged duration in comparison with conventional anti-ulcer agents
same,Volume (inhibition of acidity),"[2]; 10 mg/kg, rat",9.91 ± 4.20 μEq/hr
same,"Inhibition rate, acidity","[2]; 10 mg/kg, rat",82.89%
same,ED50,[2],3.73 mg/kg
same,Gastric juice volume,"[3]; 10 mg/kg, rat",1.49 ± 0.18 ml/100 g BW
same,"Inhibition rate, gastric juice secretion","[3]; 10 mg/kg, rat",54.29%
same,ED50,[3],8.5 mg/kg
same,Acute toxicity (in words),"[5]; clinical symptoms, death and autopsy results, mouse",very low as in Omeprazole
same,LD50,[5]; female mouse,"> 5,000.0 mg/kg BW"
same,Number of animals died in day after administration,"[5]; female mouse, 987 mg/kg",0
same,Number of animals died in day after administration,"[5]; female mouse, 1481 mg/kg",0
same,Number of animals died in day after administration,"[5]; female mouse, 2222 mg/kg",0
same,Number of animals died in day after administration,"[5]; female mouse, 3333 mg/kg",0
same,Number of animals died in day after administration,"[5]; female mouse, 5000 mg/kg",0
same,Clinical symptoms,"[5]; male and female, maximum administration amount of 5,000 mg per kg",No specific abnormal clinical symptoms were observed
same,LD50,[5]; male mouse,"> 5,000.0 mg/kg BW"
same,Number of animals died in day after administration,"[5]; male mouse, 987 mg/kg",0
same,Number of animals died in day after administration,"[5]; male mouse, 1481 mg/kg",0
same,Number of animals died in day after administration,"[5]; male mouse, 2222 mg/kg",0
same,Number of animals died in day after administration,"[5]; male mouse, 3333 mg/kg",0
same,Number of animals died in day after administration,"[5]; male mouse, 5000 mg/kg",0
same,Visual autopsy view,[5]; survived animals,No specific abnormal autopsy view was observed
same,LD50,[6],> 5000 mg/kg
same,IC50,[1]; [8],~160 µM
same,Acting mechanism,[7],specific proton pump inhibitor

# From US5554631A, “5-pyrrolyl-6-halogeno-2-pyridylmethylsulfinyl benzimidazole derivatives” (Il-Yang Pharm. Co., Ltd., priority 1994, dated 1996)
